Columns and labels:
SlPMTR1 = target: T1, SlPMTR1; assay: microscale thermophoresis (GFP fusion); assay type: binding, Solanum lycopersicum; settings: 22 °C, 30 min incubation; His-MBP-GFP fusion protein at 1 mg/ml
T1 construct: 6xHis-MBP-SlPMTR1-GFP fusion, pMAL-c2, E. coli Rosetta (DE3), Ni-NTA purified; seven-transmembrane protein; native length 300 residues (fragments 1-134 and 135-300); tags kept

SlPMTR2 = target: T2, SlPMTR2 (Solanum lycopersicum, UniProt A0A3Q7GXJ6); assay: microscale thermophoresis (GFP fusion); assay type: binding
T2 construct: gene LOC101260652; 6xHis-MBP-SlPMTR2-GFP fusion, pMAL-c2, E. coli Rosetta (DE3), Ni-NTA purified; seven-transmembrane protein; native length 309 residues (fragments 1-140 and 141-309); tags kept
T2 sequence (A0A3Q7GXJ6 1-309): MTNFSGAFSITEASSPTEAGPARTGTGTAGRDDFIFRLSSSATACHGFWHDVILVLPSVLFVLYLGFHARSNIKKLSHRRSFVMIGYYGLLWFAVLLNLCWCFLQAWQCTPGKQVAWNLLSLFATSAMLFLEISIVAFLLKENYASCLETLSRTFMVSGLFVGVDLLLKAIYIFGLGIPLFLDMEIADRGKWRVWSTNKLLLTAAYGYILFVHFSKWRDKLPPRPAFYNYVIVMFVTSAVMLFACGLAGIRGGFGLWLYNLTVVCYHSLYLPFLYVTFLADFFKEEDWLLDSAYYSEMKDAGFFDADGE

Kd (SlPMTR1): 50.7 nM
Kd (SlPMTR2): 419 nM
Compound: COc1ccc2[nH]cc(CCNC(C)=O)c2c1 [melatonin]

From publication PMC11923874, “Integration of Phytomelatonin Signaling With Jasmonic Acid in Wound‐induced Adventitious Root Regeneration” (Advanced Science, 2025)
